Reference: patent US11096986B2, “Use of a neurofilament peptide for targeting neural stem cells” (Universite D'Angers, priority 2014, dated 2021)
Ends that are not written are not given here.

Columns and labels:
[1] = system: neural stem cells; assay: Confocal microscopy of neurospheres (peptide uptake, α-tubulin microtubule network); format: cell-based, rat
Method: To visualize the NFL-TBS40-63 peptide uptake in neural stem cells, neurospheres were plated on BD Cell-Tak (BD Biosciences) coverslips or LabTek chambers. After 24 h, neurospheres were incubated with 20 μmol/L FITC labelled NFL-TBS40-63 peptide for 30 min, 6 h or 72 h. Following PBS washing, cells were fixed with 4% paraformaldehyde for 15 min and washed three times in PBS. They were then incubated in a 0.5% triton X-100 permeabilization solution for 30 min and washed three times in PBS before incubation in a blocking solution (1% bovine serum albumin in 0.1% triton X-100) for 1 h. Neurospheres were then incubated overnight at 4° C. with mouse anti-α-tubulin antibody (Sigma) 1/1000. After three washes in PBS, tubulin was localized using an Alexa 568 nm anti-mouse antibody (Life Technologies) 1/200 for 2 h. Neurospheres were washed three times with PBS before adding 3 μmol/L 4′6-diaminido-2-phenylindole (DAPI, Sigma) for 5 min. Following PBS washing, coversplips were mounted with a ProLong Gold antifade solution (Life Technologies).

[2] = system: neural stem cells; assay: CyQUANT cell proliferation assay; format: cell-based, rat
Method: To analyse the NFL-TBS.40-63 peptide effect on the NSC proliferation, primary neurospheres were dissociated and 5.10^3 cells per well were plated on BD Cell-Tak (BD Biosciences) on 96 well microplate. Cells were treated with increased concentrations of biotinylated NFL-TBS.40-63 peptide, or with 1 μmol/L colchicine during 72 h at 37° C. After washes with PBS, cells were freezed at −80° C. Finally, the DNA concentration was analyzed using the CyQUANT cell proliferation assay kit (Molecular Probes).

[3] = system: neural stem cells; assay: Cell viability by Annexin V/PI staining and FACS; format: cell-based, rat
Method: To analyse the cell viability in the presence of the NFL-TBS40-63 peptide, neurospheres were seeded in 35-mm dishes and then treated with increased concentrations of biotinylated peptide or with 1 μmol/L colchicine during 3 or 5 days at 37° C. Neurospheres were then collected in a microcentrifuge tube. After centrifugation (5 min at 700 rpm), cells were dissociated mechanically and stained with annexin-V FITC (Annexin-V FITC Kit, Miltenyi Biotec) for 15 min at room temperature. Finally, cells were counterstained with 1 μg/mL PI solution prior to analysis by flow cytometry.

[4] = system: neural stem cells; assay: Cell cycle analysis by PI incorporation and FACS; format: cell-based, rat
Method: […] Neurospheres were then collected in a microcentrifuge tube. After centrifugation (5 min at 700 rpm), cells were dissociated mechanically and permeabilized with PBS-Tween 0.5% and fixed with ethanol 70% before adding 1 mg/mL RNase (Invitrogen) during 30 min at 37° C. The cell suspension was diluted in 10 μg/mL PI before DNA content analysis by flow cytometry.

[5] = system: neural stem cells of adult rats; assay: FACS internalization of FITC labelled peptide in neurospheres of adult rats; format: cell-based, rat; details: 40 μmol/L, 30 minutes
Method: (§1) Primary cultures of neural stem cells are derived from the sub-ventricular zone of newborn (1-5 days) or adults (<4 months) brain Wistar rats. The dissociated cells were grown in MEM alpha (PAA) supplemented with 25 mmol/L D-glucose (Sigma), 1 mmol/L Na Pyruvate, 15 mmol/L HEPES, 5% penicillin/streptomycin (PAA) and 1% B27 (Gibco), and containing 20 ng/mL EGF (Promega). After 5-7 days, stem cells formed floating neurospheres.
To evaluate the internalization of the FITC labelled NFL-TBS40-63 peptide by the fluorescence-activated cell sorting technique (FACS, Becton Dickinson), neurospheres were seeded in 35-mm dishes and cultured for 30 min at 37° C. in media containing FITC labelled NFL-TBS40-63 peptide at increasing concentrations. To quench the extracellular signal of the FITC labelled NFL-TBS40-63 peptide, 0.4% trypan blue (Sigma) was added before FACS analysis. To investigate the uptake mechanism, neurospheres were preincubated at 4° C. during 30 min, or with 10 mmol/L sodium azide in the presence of 6 mmol/L 2-deoxy-D-glucose to deplete cellular ATP, or with different inhibitors during 30 min at 37° C. Then 20 μmol/L FITC labelled peptide was added to the cells for 30 min at 37 C.°. […] The fluorescent positive cells that incorporated the FITC labelled peptide were analyzed by flow cytometry (FACSCalibur, Becton Dickinson).

[6] = system: adult neural stem cells in the SVZ; assay: Intra-ventricular injection of the peptide and immunohistochemistry of the SVZ; format: in vivo, rat
Method: Adult females Wistar rats were anesthetized by intraperitoneal injection of a mixture of ketamine 10% (80 mg/kg) and xylazine 2% (10 mg/kg). Animals were then placed on a stereotaxic apparatus (David Kopf instruments, Tujunga, Calif.), and a sagital incision was made through the skin to expose the cranium in which a small hole was made using a dental drill, at the appropriate coordinates (−0.8 mm anterior and 1.6 mm lateral to the bregma). A volume of […] of the FITC-peptide 1 mmol/L was injected, using a 10-μL Hamilton syringe (Hamilton glass syringe 70 RN) with a 32-G needle (Hamilton, VWR), at a depth of 4.3 mm from the outer border of the cranium into the right lateral ventricle, and connected through a cannula to a 100-μL Hamilton 22-G syringe (Hamilton glass syringe 810 RN) containing the peptide. A slow-infusion was performed by convection-enhanced delivery (CED) with an osmotic pump (Harvard Apparatus) at a flow rate of 0.5 μL/min. After injection and withdrawal of the needle (0.5 mm/min), the head skin was sutured. Animals were sacrificed 1 hour, 6 hours, or 24 hours after the injection, and brains were removed and frozen, before sectioning them using a Leica cryostat. […]

[7] = system: neural stem cells of newborn rats; assay: FACS internalization of FITC labelled peptide in neurospheres of newborn rats; format: cell-based, rat; details: for percentage of newborn NSCs that internalized the peptide: 30 min, FACS
Method: as §1
(§2) To evaluate the internalization of the FITC labelled NFL-TBS40-63 peptide by the fluorescence-activated cell sorting technique (FACS, Becton Dickinson), neurospheres were seeded in 35-mm dishes and cultured for 30 min at 37° C. in media containing FITC labelled NFL-TBS40-63 peptide at increasing concentrations. To quench the extracellular signal of the FITC labelled NFL-TBS40-63 peptide, 0.4% trypan blue (Sigma) was added before FACS analysis. To investigate the uptake mechanism, neurospheres were preincubated at 4° C. during 30 min, or with 10 mmol/L sodium azide in the presence of 6 mmol/L 2-deoxy-D-glucose to deplete cellular ATP, or with different inhibitors during 30 min at 37° C. Then 20 μmol/L FITC labelled peptide was added to the cells for 30 min at 37 C.°. Subsequently, after centrifugation (5 min at 700 rpm), cells were dissociated mechanically and washed twice with PBS, and then re-suspended in 50 μg/mL Propidium iodide (PI, Sigma). The fluorescent positive cells that incorporated the FITC labelled peptide were analyzed by flow cytometry (FACSCalibur, Becton Dickinson).

[8] = system: neurones and astrocytes; details: neurones and astrocytes (Bocquet et al., 2009; Bergès et al., 2012); cited from earlier work
[9] = system: neural stem cells of newborn rats; assay: Uptake mechanism by FACS (4° C., ATP depletion, endocytosis inhibitors); format: cell-based, rat
Method: as §2

[10] = system: glioblastoma cells; details: glioblastoma cells (Bocquet et al., 2009; Bergès et al., 2012); cited from earlier work
[11] = system: PSA-NCAM expression on neural stem cells; assay: PSA-NCAM expression by flow cytometry; format: cell-based, rat; details: high peptide concentrations, 7 days
Method: To quantify the PSA-NCAM expression on neural stem cells, neurospheres were seeded in 35-mm dishes and cultured for 7 days at 37° C. in media containing biotinylated NFL-TBS.40-63 peptide at increasing concentrations, or containing 1% new-born calf serum (NBCS). After dissociation, cells were incubated with the anti-PSA-NCAM antibody conjugated to R-phycoerythrin (PE) for 10 minutes at 4° C. (Miltenyi), washed and then re-suspended in 50 μg/mL PI. The fluorescent positive cells that expressed PSA-NCAM were analyzed by flow cytometry.

[12] = system: neural stem cells; assay: Self-renewal assay (secondary neurospheres); format: cell-based, rat; details: primary neurospheres cultured with peptide, dissociated, 5 days in culture medium only
Method: (§3) To investigate neurosphere forming properties, 5.10^3 SVZ cells were seeded per well in a 24 wells plate in media containing 20 ng/mL EGF. Cells were incubated in the absence or presence of increasing concentrations of biotinylated peptide, or with 1 μg/mL colchicine. After 5-7 days, the total number of primary neurospheres and the percent of adherent primary neurospheres were determined in each condition by microscopy analysis, and pictures were taken with an inverted microscope and the Metamorph software. Then for self-renewal assay, primary neurospheres were collected in each condition, dissociated as single cells, and seeded in media containing 20 ng/mL EGF. After 5 days, the total number of secondary neurospheres was counted in each condition by microscopy analysis.

[13] = system: neural stem cells; assay: Neurosphere forming analysis (primary neurospheres, adherence); format: cell-based, rat
Method: as §3

[14] = summary of proliferation and adhesion results

Molecule: COc1cc2c(c(OC)c1OC)-c1ccc(OC)c(=O)cc1[C@@H](NC(C)=O)CC2 [colchicine, reference compound]
- microtubule network of NSC ([1]; colchicine): profoundly affected
- neural stem cell proliferation (DNA concentration) ([2]; colchicine, anti-proliferative agent control): significant decrease
- number of viable NSC ([3]; colchicine, three days, Annexin V-FITC and PI): strongly reduced
- cellular cycle of NSC ([4]; 1 μg/mL colchicine, positive control): affected

Molecule: FITC-peptide: NFL-TBS40-63 peptide coupled to carboxy-fluorescein isothiocyanate (FITC) (YSSYSAPVSSSLSVRRSYSSSSGS; also: coupled to FITC, site not given here; UniProt P07196 40-63, looked up, fragment)
- internalization of the peptide by confocal microscopy ([1]; NSCs in the neurospheres and progenitor cells in the periphery, 20 μmol/L FITC labelled peptide): confirmed the internalization
- maximum threshold of peptide uptake in adult NSC (percentage of fluorescent cells) [5]: 92.74±2.51%
- localisation of the peptide in brain sections ([6]; 1 mmol/L FITC peptide in right lateral ventricle of adult rats, 1 hour after injection): localised in the right lateral ventricle, in the ependymal cells and a part was observed in the SVZ
- cytotoxicity in vivo ([6]; after injection in right lateral ventricle, confocal analyses): without causing detectable cytotoxicity
- percentage of newborn NSCs that internalized the peptide ([7]; 5 μmol/L FITC-peptide): 38.72±9.08%
- percentage of newborn NSCs that internalized the peptide ([7]; 40 μmol/L FITC-peptide): 91.07±5.13%
- peptide uptake after quenching of surface-bound fluorescence ([7]; 0.4% trypan blue added before FACS reading): dose-dependent uptake of the peptide similar to that without quenching

Molecule: YSSYSAPVSSSLSVRRSYSSSSGS (TBS motif of the human light chain neurofilament protein, amino acids) [NFL-TBS40-63 peptide]
- microtubule and cellular cycle disruption in normal cells [8]: not observed
- peptide uptake under ATP-depletion ([9]; ATP-depleted buffer 30 minutes before peptide, 20 μmol/L FITC labelled peptide): not affected
- peptide uptake at 4° C. ([9]; cells at 4° C. 30 minutes before peptide, 20 μmol/L FITC labelled peptide): not affected
- peptide uptake in the presence of inhibitors of endocytic and signalling pathways ([9]; chlorpromazine, PMA, DAM, wortmaninn, U0126, genistein, sunitinib, gefitinib pre-treatment 30 min, 20 μmol/L peptide): not affected
- microtubule network of NSC ([1]; 6 hours of incubation with the peptide (20 μmol/L FITC labelled)): not affected
- concentration at which the peptide disrupts microtubule formation and the cellular cycle [10]: higher than 10 μm
- neural stem cell proliferation (DNA concentration) ([2]; increased peptide concentrations, one week (72 h in method)): significant decrease
- NSC cell viability [3]: not modified
- cellular cycle of NSC ([4]; increased peptide concentrations, 48 h): remained unchanged
- cells in G1-phase ([4]; with or without peptide, 48 h): 60-65%
- cells in G2/M-phases ([4]; with or without peptide, 48 h): ~7%
- cells in S-phase ([4]; with or without peptide, 48 h): ~10%
- PSA-NCAM expression on the neural stem cells [11]: weak decrease
- numbers of secondary neurospheres compared to control (self-renewal) [12]: significantly lower numbers of secondary neurospheres
- adherence of primary neurospheres ([13]; 40 μmol/L peptide): most of primary neurospheres were adherent
- number of primary neurospheres compared to untreated control ([13]; increased peptide concentrations, 5 days, except for 100 μmol/L): did not change
- adherence of primary neurospheres ([13]; peptide concentrations higher than 40 μmol/L): no floating neurospheres were observed
- high concentrations that affect both proliferation and adhesion of neural stem cells [13, 14]: ≥ 40 µmol/L
- low concentrations that disrupt cell proliferation without effect on cell attachment [13, 14]: up to 20 μmol/L
